Experimental findings from ChEMBL document CHEMBL3045222, “Synthesis of novel benzimidazole derivatives: as potent analgesic agent” (2013) are described below.

Type in all cases: functional
Assay [1] concerns Rattus norvegicus. As to the kind of experiment: Analgesic activity in Rattus norvegicus (rat) assessed as time taken to withdraw tail in response to heat stress at 50 mg/kg, po after 120 min by tail flick method based analgesiometer analysis (reference value: 5.16 +/-0.31 secs). Background: Hot-plate and tail-flick tests time the reaction to a heat stimulus.
The subject of assay [2] is Rattus norvegicus. Put plainly: Analgesic activity in Rattus norvegicus (rat) assessed as time taken to withdraw tail in response to heat stress at 50 mg/kg, po after 90 min by tail flick method based analgesiometer analysis (reference value: 6.00 +/-0.36 secs).
For assay [3], the system named is Rattus norvegicus. Put plainly: Analgesic activity in Rattus norvegicus (rat) assessed as time taken to withdraw tail in response to heat stress at 50 mg/kg, po after 60 min by tail flick method based analgesiometer analysis (reference value: 6.5 +/-0.22 secs).
The test system of assay [4] is Rattus norvegicus. As to the kind of experiment: Analgesic activity in Rattus norvegicus (rat) assessed as time taken to withdraw tail in response to heat stress at 50 mg/kg, po after 30 min by tail flick method based analgesiometer analysis (reference value: 5.50 +/-0.43 secs).

For the compound `COc1ccc2nc(-c3c(O)ccc4ccccc34)n(C)c2c1`, the Time in the assay on Rattus norvegicus [1] was 6.83 s; in the assay on Rattus norvegicus [2], 8.5 s; with Rattus norvegicus [3] it was 10.33 s; in the assay with Rattus norvegicus [4] it was 10.66 s.
In the case of `CCCCn1c(-c2c(O)ccc3ccccc23)nc2ccc(OC)cc21`, the Time in the assay on Rattus norvegicus [1] was determined as 6.66 s; in the assay on Rattus norvegicus [2] it was 7.66 s; in the assay with Rattus norvegicus [3] it was 9.33 s; with Rattus norvegicus [4], 8.66 s.
Consider `Cn1c(-c2c(O)ccc3ccccc23)nc2ccc([N+](=O)[O-])cc21`, for which the Time in the assay with Rattus norvegicus [1] was determined as 7 s; with Rattus norvegicus [2] it was 6.83 s; in the assay with Rattus norvegicus [3] it was 11.5 s; in the assay with Rattus norvegicus [4] it was 10.5 s.
For `CCCCn1c(-c2c(O)ccc3ccccc23)nc2ccc([N+](=O)[O-])cc21`, the Time in the assay with Rattus norvegicus [1] is listed as 4.83 s; with Rattus norvegicus [2], 6 s; in the assay on Rattus norvegicus [3] it was 6.5 s; in the assay with Rattus norvegicus [4], 6.66 s.
In the same order, the values of `Cn1c(-c2c(O)ccc3ccccc23)nc2ccccc21` are 5.16 s, 6 s, 7 s and 6.5 s.
For the compound `CCCCn1c(-c2c(O)ccc3ccccc23)nc2ccccc21`, the Time in the assay on Rattus norvegicus [1] came to 6.83 s; in the assay with Rattus norvegicus [2] it was 9.66 s; in the assay with Rattus norvegicus [3], 10.5 s; with Rattus norvegicus [4] it was 10.66 s.
For `O=C(O)Cc1ccccc1Nc1c(Cl)cccc1Cl` [DICLOFENAC], in that order: 7 s, 10 s, 11.66 s and 10.83 s.
